Like-named read-outs stand apart in the source and are kept apart here.
Columns and labels:
[1] = target: σ receptors labelled by [^3H]DTG (σ1 + σ2); assay: Sigma receptor binding assay, [3H]DTG; conditions: read-out: IC50 ± SEM [^3H]DTG (σ1 + σ2); guinea pig brain membranes; compounds 1-5 tested up to 10 µM
Protocol: (§1) Filters were washed three times with 5 ml of ice-cold 10 mM Tris-HCI buffer (pH 8). The bound radioactivity was measured by liquid scintillation counting (Beckman Coulter™ LS6500). […] The values are expressed as the mean ± S.E.M of 2 - 4 independent experiments, each performed in duplicate.

[2] = target: T1, µ opioid receptor (Rattus norvegicus, UniProt P33535); assay: Opioid receptor binding assay, [3H]DAMGO, rat brain membranes; set-up: Membrane fractions were prepared from Sprague-Dawley rat or guinea pig brains; from tissue; host or cells: Sprague-Dawley rat brain (without cerebella) membranes; species or system Sprague-Dawley rat
T1 sequence (P33535 whole entry): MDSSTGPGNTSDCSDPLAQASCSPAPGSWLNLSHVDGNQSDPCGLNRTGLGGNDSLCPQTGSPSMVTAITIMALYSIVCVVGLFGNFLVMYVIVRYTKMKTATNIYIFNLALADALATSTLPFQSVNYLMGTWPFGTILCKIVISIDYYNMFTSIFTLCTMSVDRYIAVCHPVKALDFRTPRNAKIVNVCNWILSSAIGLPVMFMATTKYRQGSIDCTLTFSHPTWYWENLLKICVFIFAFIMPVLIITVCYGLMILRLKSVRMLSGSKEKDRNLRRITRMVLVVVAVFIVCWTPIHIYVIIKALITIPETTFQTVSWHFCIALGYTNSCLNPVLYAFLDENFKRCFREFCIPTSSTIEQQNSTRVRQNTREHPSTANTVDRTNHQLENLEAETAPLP
Protocol: (§2) Briefly, brains without cerebella were homogenised on ice in 5 volumes of ice-cold 50 mM Tris-HCI buffer (pH 7.4) and diluted in 30 volumes of the same buffer. After centrifugation at 40,000 x g for 20 min at 4°C, the pellets were resuspended in 30 volumes of Tris-HCI buffer and incubated at 37 °C for 30 min (rat brain) or for 10 min (guinea pig brain). The centrifugation step was repeated and the final pellets were resuspended in 5 volumes of 50 mM Tris-HCI buffer (pH 7.4) containing 0.32 M sucrose to give a protein concentration of 4 - 6 mg/ml. Protein concentration was determined by the method of Bradford using bovine serum albumin as standard.
(§3) Binding experiments were performed in 50 mM Tris-HCI buffer (pH 7.4) in a final volume of 1 ml containing 0.3 - 0.5 mg protein and different concentrations of the compounds. […] Guinea pig brain membranes were incubated with [^3H]U69,593 (30 min, 30 °C). Non-specific binding was determined in the presence of 10 µM unlabeled naloxone. […] Inhibition constant (Ki) values were calculated from competition binding curves using GraphPad Prism (San Diego, CA, USA) program. The values are expressed as the mean ± S.E.M of 2-4 independent experiments, each performed in duplicate.
(§4) The morphinan-6-one compounds of the present invention were evaluated in in vitro receptor binding assays for their interaction abilities with µ, δ and k opioid receptors. […] The affinities of the compounds at k opioid receptors were determined by displacement of [^3H]U69,593 using guinea pig brain membranes.

[3] = target: T2, δ opioid receptors (Rattus norvegicus, UniProt P33533); assay: Opioid receptor binding assay, [3H][Ile5,6]deltorphin II, rat brain membranes; set-up: species or system Sprague-Dawley rat
T2 construct: Membrane fractions were prepared from Sprague-Dawley rat or guinea pig brains; from tissue; host or cells: Sprague-Dawley rat brain (without cerebella) membranes
T2 sequence (P33533 whole entry): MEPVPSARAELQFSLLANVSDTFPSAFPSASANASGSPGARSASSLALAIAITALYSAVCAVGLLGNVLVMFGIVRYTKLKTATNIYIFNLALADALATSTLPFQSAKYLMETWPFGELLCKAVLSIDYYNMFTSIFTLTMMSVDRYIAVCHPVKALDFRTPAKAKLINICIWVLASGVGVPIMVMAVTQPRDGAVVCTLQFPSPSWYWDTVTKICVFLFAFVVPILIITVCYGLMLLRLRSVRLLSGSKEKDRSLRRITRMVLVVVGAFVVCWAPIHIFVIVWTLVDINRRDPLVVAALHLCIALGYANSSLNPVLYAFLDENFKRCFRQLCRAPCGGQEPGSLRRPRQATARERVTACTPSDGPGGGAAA
Protocol: as §2, §3, §4

[4] = target: T3, k opioid receptors (Cavia porcellus, UniProt P41144); assay: Opioid receptor binding assay, [3H]U69,593, guinea pig brain membranes
T3 construct: Membrane fractions were prepared from Sprague-Dawley rat or guinea pig brains; from tissue; host or cells: guinea pig brain (without cerebella) membranes
T3 sequence (P41144 whole entry): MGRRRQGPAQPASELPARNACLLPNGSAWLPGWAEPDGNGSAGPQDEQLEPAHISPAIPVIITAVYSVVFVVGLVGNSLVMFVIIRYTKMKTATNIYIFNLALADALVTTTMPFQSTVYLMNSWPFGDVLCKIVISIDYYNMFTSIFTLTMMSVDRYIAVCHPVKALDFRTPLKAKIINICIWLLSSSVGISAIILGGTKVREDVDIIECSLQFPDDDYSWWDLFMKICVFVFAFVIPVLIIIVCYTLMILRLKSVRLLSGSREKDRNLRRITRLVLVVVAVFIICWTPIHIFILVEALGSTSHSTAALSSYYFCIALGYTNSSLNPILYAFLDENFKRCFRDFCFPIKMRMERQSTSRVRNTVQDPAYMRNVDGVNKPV
Protocol: as §2, §3, §4

[5] = target: T1, µ opioid receptor; assay: [35S]GTPγS functional assay, rat brain membranes, µ receptor; format: biochemical, Sprague-Dawley rat; set-up: Membrane fractions were prepared from Sprague-Dawley rat or guinea pig brains; from tissue; host or cells: Sprague-Dawley rat brain (without cerebella) membranes
Protocol: (§5) Membrane fractions were prepared from Sprague-Dawley rat or guinea pig brains as described above. To determine binding of [^35S]GTPyS, rat or guinea pig brain membranes (10 µg of protein) were incubated for 60 min at 30 °C in Tris-EGTA buffer (50 mM Tris-HCl buffer, 3 mM MgCl2, 1 mM EGTA, […], pH 7.4) containing 30 µM GDP, 0.05 nM [^35S]GTPyS and appropriate concentrations of the respective compounds according to the present invention in a final volume of 1 ml. The reaction was terminated by vacuum filtration through Whatman GF/B glass fibre filters. Filters were washed three times with ice-cold 50 mM Tris-HCI buffer (pH 7.4) and the bound radioactivity was measured by liquid scintillation counting (Beckman Coulter™ LS6500). Basal activity was determined by subtracting the non-specific binding (measured in the presence of 100 µM unlabelled GTPyS) from the total binding (measured in the absence of the compound).
(§6) Stimulation produced by the compound is given as percentage of the basal activity (given as 100%). Functional data, EC50 (nM; half maximal effective concentration) and maximal stimulation Emax (% stimulation over basal level; maximal effective concentration), were calculated by using nonlinear regression analysis and sigmoidal curve fitting GraphPad Prism (San Diego, CA, USA) program. The values are expressed as the mean ± S.E.M of at least 3 independent experiments, each performed in triplicate. Statistical analysis was carried out using SPSS software (SPSS Inc., Chicago, lL, USA) and the Student T-test was used to compare different assay conditions. A ρ value < 0.05 was considered statistically significant.

[6] = target: T4, σ receptors labelled by [^3H](+)-pentazocine (σ1) (Cavia porcellus, UniProt Q60492); assay: Sigma receptor binding assay, [3H](+)-pentazocine; set-up: species or system guinea pig
T4 construct: from tissue; host or cells: guinea pig brain membranes
T4 sequence (Q60492 whole entry): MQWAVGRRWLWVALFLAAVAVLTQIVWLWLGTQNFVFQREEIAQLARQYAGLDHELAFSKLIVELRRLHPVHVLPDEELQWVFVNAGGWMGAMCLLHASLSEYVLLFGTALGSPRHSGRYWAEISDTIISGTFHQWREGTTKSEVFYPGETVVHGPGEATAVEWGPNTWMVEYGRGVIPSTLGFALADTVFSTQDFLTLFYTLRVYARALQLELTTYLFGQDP
Protocol: as §1

[7] = tested on: extracellular ACh concentration in the nucleus accumbens; conditions: for 0AUC120 min (% increase x min) Mean ± SEM: 0 to 120 min; for Increase in ACh release (Peak increase as % of basal output): nucleus accumbens
[8] = target: T5, electric eel AChE (EC 3.1.1.7) (Electrophorus electricus, UniProt O42275); assay: Spectrophotometric assay for AChE inhibitory activity (modified Ellman's method); format: biochemical; conditions: 96-well microplate, 1% DMSO; read-out: AChE inhibitory activity IC50
T5 construct: purchased Sigma-Aldrich, Germany
T5 sequence (O42275 24-633): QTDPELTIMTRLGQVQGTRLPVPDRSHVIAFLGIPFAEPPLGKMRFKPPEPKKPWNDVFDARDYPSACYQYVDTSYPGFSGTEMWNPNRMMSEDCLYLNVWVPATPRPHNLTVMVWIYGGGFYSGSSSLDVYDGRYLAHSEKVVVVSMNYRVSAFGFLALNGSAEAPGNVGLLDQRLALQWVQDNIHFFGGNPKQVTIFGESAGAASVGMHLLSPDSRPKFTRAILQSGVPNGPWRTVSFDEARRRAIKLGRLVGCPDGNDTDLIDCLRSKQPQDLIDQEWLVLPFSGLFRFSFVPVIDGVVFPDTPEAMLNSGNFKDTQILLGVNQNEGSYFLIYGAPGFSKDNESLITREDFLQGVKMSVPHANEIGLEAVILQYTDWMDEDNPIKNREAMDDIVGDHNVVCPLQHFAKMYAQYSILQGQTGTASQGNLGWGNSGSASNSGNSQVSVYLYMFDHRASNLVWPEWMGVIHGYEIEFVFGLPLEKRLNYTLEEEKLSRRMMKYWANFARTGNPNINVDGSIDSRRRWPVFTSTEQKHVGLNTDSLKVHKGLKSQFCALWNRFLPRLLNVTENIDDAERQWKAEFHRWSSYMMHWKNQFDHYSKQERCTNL

[9] = tested on: frontal cortex synaptosomes; assay: ACh release from synaptosomes (15 mM K+-evoked [3H]-ACh release, superfusion); format: cell-based, male Sprague Dawley rats; conditions: 15 mM K+
Protocol: Preparation of synaptosomes: synaptosomes were prepared from brain frontal cortex of male Sprague Dawley rats (4 months old). The frontal cortex was rapidly dissected on ice and homogenized in 40 volumes of 0.32 M sucrose buffered at pH 7.4 with 0.01 M sodium phosphate. The homogenate was centrifuged at 1,000 g for 5 min. The crude synaptosomal pellet was obtained by centrifugation of the supernatant at 15,000 g for 20 min and was resuspended in 5 ml basal medium (125 mM Nacl, 3 mM KCI, 1.2 mM MgS04, 1.2 mM CaCl2, 1.0 mM NaH2PO4, 22 mM NaHCO3 and 10 mM glucose) which had been gassed with 95% O2 - 5% CO2 at 37 °C, pH 7.2 - 7.4.
Superfusion protocol: The synaptosomal suspension was incubated with [^3H]-choline (0.03 µM, 17.5x10^6 Bq/g) for 15 min at 37 °C. Then, the suspension was diluted (1:8) and aliquots were applied on filters in a continuous superfusion system with parallel chambers maintained at 37 °C. The media used for superfusion were basal medium and 15 mM K^+-containing stimulation medium. Both media were supplemented with ACh (1 µM) to facilitate the effectiveness of an allosteric potentiating ligand at the nicotine receptor and with atropine (0.1 µM) to block M2 presynaptic receptors. Synaptosomes were superfused with basal medium for 30 min to reach a constant outflow of [^3H]-ACh. Under these experimental conditions, the radioactivity released consisted largely of newly synthesized [^3H]-ACh. The K^+-stimulated release of [^3H]-ACh was determined in 2 subsequently collected fractions: 6 min basal release (superfusion with basal medium) and 6 min K^+-evoked release (superfusion for 1.5 min with 15 mM K^+-containing medium followed by […] basal medium). The test compounds galantamine, 4 and 2 were present in the superfusion medium concomitantly with 15 mM K^+ (for 1.5 min). Basal release of [^3H]-ACh (continuous superfusion with basal medium) was determined by collection of a 6 min sample followed by four subsequent 2 min samples. Aliquots of samples were mixed with scintillation liquid and the radioactivity quantified with a scintillation counter. The radioactivity bound to the filters was also measured.
Statistical analysis: The amount of [^3H]-ACh released in each sample was calculated as fraction of total synaptosomal tritium at the start of the respective collection period (tritium in the sample / sum of tritium in the respective fractions and in the synaptosomes on the filter). K^+-evoked release was expressed as percentage of basal release rate. Each n=1 represents the mean of an experiment with one synaptosomal preparation in at least 3 superfusion chambers. Statistical significance of group variances was calculated by one way ANOVA followed by Bonferroni's test.

[10] = target: T6, K receptor (Cavia porcellus, UniProt P41144); format: biochemical, guinea pig
T6 construct: Membrane fractions were prepared from Sprague-Dawley rat or guinea pig brains; from tissue; host or cells: guinea pig brain (without cerebella) membranes
T6 sequence (P41144 whole entry): as the sequence (P41144 whole entry) above

[11] = target: T7, δ receptor (Rattus norvegicus, UniProt P33533); assay: [35S]GTPγS functional assay, rat brain membranes, δ receptor; format: biochemical, Sprague-Dawley rat
T7 construct: Membrane fractions were prepared from Sprague-Dawley rat or guinea pig brains; from tissue; host or cells: Sprague-Dawley rat brain (without cerebella) membranes
T7 sequence (P33533 whole entry): as the sequence (P33533 whole entry) above
Protocol: as §5, §6

[12] = tested on: C57BL/6N female mice; assay: Object recognition task; conditions: normal mice, 0.03 µmol i.c.v.
[13] = tested on: C57BL/6N female mice; assay: T-maze continuous alternation; conditions: normal mice

## CC(C)=CCN1CCC2(C)c3cc(O)ccc3CC1C2C (racemic) [(±)Pentazocine, reference compound]
[1]
  IC50: 0.0546 ± 0.0053 µM

## O=CN1CC[C@]23CC(=O)CC[C@H]2[C@H]1CC1=C3C(=O)C=CC1=O [1,4-dione-N-formylmorphinan-6-one]
[2]
  binding to opioid receptor µ (in words): does not bind
[3]
  binding to opioid receptor δ (in words): does not bind
[4]
  binding to opioid receptor K (in words): does not bind

## O=CN1CC[C@]23c4c5cccc4OC2C(=O)CC[C@H]3[C@H]1C5 (stereo partly drawn) [4,5-epoxy-N-formylmorphinan-6-one]
[2]
  binding to opioid receptor µ (in words): does not bind
[3]
  binding to opioid receptor δ (in words): does not bind
[4]
  binding to opioid receptor K (in words): does not bind

## C=CCN1CC[C@]23CC(=O)CC[C@@]2(OC)[C@H]1Cc1cccc(OC)c13 [4,14-dimethoxy-N-allyl-morphinan-6-one]
[5]
  function at the µ opioid receptor: antagonistic function

## CCCN1CCC[C@H](c2cccc(O)c2)C1 [(+)-3-PPP, reference compound]
[6]
  IC50: 0.0682 ± 0.0048 µM

## C=CCN1CC[C@]2(C)c3cc(O)ccc3C[C@H]1[C@H]2C [(+)-SKF-10,047, reference compound]
[1]
  IC50: 0.291 ± 0.014 µM

## O=CN1CC[C@]23CC(=O)CC[C@H]2[C@H]1CC1=C3C(=O)C=CC1=O [Compound 2, 1,4-dione-N-formylmorphinan-6-one]
[1]
  IC50: > 0.01 µM
[2]; [3H]DAMGO, rat brain membranes, read-out: Opioid binding affinities Ki µ receptor
  Ki: > 10 µM
[2]; no specific binding, read-out: Ki, µ opioid receptor
  Ki: > 10 µM
[7]; 0.5 µmol i.c.v.
  effect on ACh in the superfusate (in words): short increase in ACh concentration followed by a decrease
[7]; 1 µmol and above, i.c.v., anaesthetized rats
  toxicity at higher doses: could not be tested because of toxicity
[7]; Dose 0.5 µmol i.c.v.
  0AUC120 min (% increase x min) Mean ± SEM: 98 ± 27 % increase x min
  Increase in ACh release (Peak increase as % of basal output): 57 ± 14 %
[6]
  IC50: > 10 µM
[3]; [3H][Ile5,6]deltorphin II, rat brain membranes, read-out: Opioid binding affinities Ki δ receptor
  Ki: > 10 µM
[3]; no specific binding, read-out: Ki, δ opioid receptor
  Ki: > 10 µM
[4]; [3H]U69,593, guinea pig brain membranes, read-out: Opioid binding affinities Ki κ receptor
  Ki: > 10 µM
[4]; no specific binding, read-out: Ki, k opioid receptor
  Ki: > 10 µM
[8]
  IC50: 12.7 µM

## Cc1ccccc1NC(=N)Nc1ccccc1C [DTG, reference compound]
[1]
  IC50: 0.126 ± 0.005 µM

## COc1ccc2c3c1O[C@H]1C[C@@H](O)C=C[C@@]31CCN(C)C2 [Galantamine, galantamine, reference compound]
[9]
  concentration of maximal effect on stimulation-evoked ACh release: 1 µM
[7]; Dose 0.5 µmol i.c.v.
  0AUC120 min (% increase x min) Mean ± SEM: 642 ± 85 % increase x min
  Increase in ACh release (Peak increase as % of basal output): 118 ± 29 %
[7]; Dose 1 µmol i.c.v.
  0AUC120 min (% increase x min) Mean ± SEM: 1857 ± 173 % increase x min
  Increase in ACh release (Peak increase as % of basal output): 101 ± 42 %

## Oc1ccc2c3c1O[C@H]1c4[nH]c5c(c4C[C@@]4(O)[C@@H](C2)N(CC2CC2)CC[C@]314)C[C@@]1(O)[C@H]2Cc3ccc(O)c4c3[C@@]1(CCN2CC1CC1)[C@H]5O4 [Nor-BNI, reference compound]
[10]
  effect on [35S]GTPγS binding stimulated by U69,593: highly effective in inhibiting

## C=CCN1C[C@H](C)N([C@H](c2ccc(C(=O)N(CC)CC)cc2)c2cccc(OC)c2)C[C@H]1C [SNC 80, reference compound]
[11]; data not shown, read-out: Emax (% of basal activity)
  Emax: 137 ± 4%

## CN1[C@@H]2C[C@@H](OC(=O)[C@H](CO)c3ccccc3)C[C@H]1[C@@H]1O[C@@H]12 [Scopolamine, scopolamine, reference compound]
[12]
  object recognition, exploration ratio novel/familiar object: close to one
[13]; 0.033 µmol
  running time: only a moderate increase
  spontaneous alternation: profound decrease
[13]; dose series, bell-shaped curve, not shown
  running time: strong increase
[13]; dose series, not shown
  spontaneous alternation: dose-dependent reduction

## Nc1c2c(nc3ccccc13)CCCC2 [Tacrine, tacrine, reference compound]
[7]; rat, in vivo
  dose dependence of the increase in extracellular brain ACh: pronounced and dose-dependent increases

## COc1cccc2c1[C@]13CCN(CC4CC4)[C@H](C2)[C@]1(OC)CCC(=O)C3 [cyprodime, reference compound]
[5]; compound 10 µM, DAMGO 10 µM, rat brain membranes
  effect on [35S]GTPγS binding stimulated by DAMGO: significantly decreased

## Oc1ccc2c3c1O[C@H]1c4[nH]c5ccccc5c4C[C@@]4(O)[C@@H](C2)N(CC2CC2)CC[C@]314 [naltrindole, reference compound]
[11]; compound 10 µM, SNC 80 10 µM
  effect on [35S]GTPγS binding stimulated by SNC 80: markedly decreased

Reference: patent EP2340832A1, “Morphinan-6-one compounds for the treatment or prevention of neurodegenerative diseases” (Universität Innsbruck, priority 2009, dated 2011)
